From patent US20080269237A1, “CARBAMIC ACID COMPOUNDS COMPRISING A PIPERAZINE LINKAGE AS HDAC INHIBITORS” (TOPOTARGET UK LIMITED, priority 2002, published 2008) come the findings set out here.

One data set has as its system HDAC (HeLa cell extract). Nature of the data set: Primary assay: deacetylase activity, HeLa cell extract as source of HDAC. Particulars: for HDAC Inhibition HeLa, % @ 500 nM: 500 nM compound; for IC50: read-out: HDAC Inhibition (IC50 unless otherwise specified) HeLa; for HDAC Inhibition HeLa, % @ 100 nM: 100 nM compound. The data set is classed as biochemical, human. How it is done: Decreased activity indicates increased inhibition by the test compound.
Alternatively, the activity of the compounds as HDAC inhibitors was determined using a commercially available fluorescent assay kit: (Fluor de Lys™, BioMol Research Labs, Inc., Plymouth Meeting, USA).
Extensive comparative studies have shown that Primary Assay (1) and Primary Assay (2), discussed above, yield equivalent results. Primary Assay results reported herein are (a) exclusively from (1); (b) exclusively from (2); or (c) from both (1) and (2).
The HeLa cell extract was made from HeLa cells (ATCC Ref. No. CCL-2) by freeze-thawing three times in 60 mM TrisCl pH 8.0, 450 mM NaCl, 30% glycerol. Two cell volumes of extraction buffer were used, and particulate material was centrifuged out (20800 g, 4° C., 10 min). The supernatant extract having deacetylase activity was aliquoted and frozen for storage.
% activity={(S^C−B)/(S^o−B)}×100

In data set [1] the test system is JURKAT (human T-cell line). Put plainly: Secondary assay: cell proliferation inhibition WST-1, Jurkat. The format is cell-based. Particulars: 48 h, read-out: Cell Proliferation Inhibition WST-1 (IC50 unless otherwise specified) Jurkat. On the technique in general: Tetrazolium assays rely on reduction of a dye to a coloured formazan, in cell work by metabolically active cells.

For orientation: melting point means the temperature, or range, at which the solid turns liquid. As for `O=C(CCCCCC(=O)N1CCN(C(c2ccccc2)c2ccccc2)CC1)NO` [PX117403, 7-(4-Benzhydryl-piperazin-1-yl)-7-oxo-heptanoic acid hydroxyamide], the melting point is 157 to 159 °C. Besides, the “HDAC Inhibition HeLa, % @ 500 nM” value in the data set with HDAC (HeLa cell extract) is recorded as 28% @ 500 nM.

In turn, `O=C(CCCCCC(=O)N1CCN(c2ccccc2)CC1)NO` [PX117404, 7-Oxo-7-(4-phenyl-piperazin-1-yl)-heptanoic acid hydroxyamide] displayed a melting point of 107 to 109 °C. Moreover, the “HDAC Inhibition HeLa, % @ 500 nM” value in the data set on HDAC (HeLa cell extract) came out at 35% @ 500 nM.

On to `O=C(CCCCCCC(=O)N1CCN(c2ccccc2Cl)CC1)NO` [PX118791, 8-[4-(2-Chloro-phenyl)-piperazin-1-yl]-8-oxo octanoic acid hydroxyamide], for which the melting point lay in the range of 131 to 132 °C. In addition, the IC50 in the data set with HDAC (HeLa cell extract) stood at 36 nM.

`O=C(CCCCCCC(=O)N1CCN(c2cccc(Cl)c2)CC1)NO` [PX118792, 8-[4-(3-Chloro-phenyl)-piperazin-1-yl]-8-oxo octanoic acid hydroxyamide] gave a melting point of 122 to 124 °C. In addition, in the data set with HDAC (HeLa cell extract), the IC50 was determined as 34 nM.

As to `O=C(CCCCCC(=O)N1CCN(c2ccccc2Cl)CC1)NO` [PX118793, 7-[4-(2-Chloro-phenyl)-piperazin-1-yl]-7-oxo heptanoic acid hydroxyamide], the melting point is 128 to 130 °C. For the same compound, the IC50 with HDAC (HeLa cell extract) was found to be 188 nM.

In turn, `O=C(CCCCCC(=O)N1CCN(c2cccc(Cl)c2)CC1)NO` [PX118794, 7-[4-(3-Chloro-phenyl)-piperazin-1-yl]-7-oxo heptanoic acid hydroxyamide] returned a melting point of 120 to 122 °C. In addition, the IC50 with HDAC (HeLa cell extract) came to 74 nM.

`O=C(/C=C/c1cccc(S(=O)(=O)N2CCN(c3ccccn3)CC2)c1)NO` [PX118807, (E)-N-Hydroxy-3-{3-[(4-(2-pyridinyl)-1-piperazinyl)sulfonyl]phenyl}-2-propenamide]: the “HDAC Inhibition HeLa, % @ 100 nM” value with HDAC (HeLa cell extract) is 60% @ 100 nM.

With `COc1ccccc1N1CCN(S(=O)(=O)c2cccc(/C=C/C(=O)NO)c2)CC1` [PX118810, (E)-N-Hydroxy-3-{3-[(4-(2-methoxyphenyl)-1-piperazinyl)sulfonyl]phenyl}-2-propenamide], the melting point turned out to be 190 °C. The IC50 in the data set on HDAC (HeLa cell extract) is 46 nM.

Regarding `O=C(/C=C/c1cccc(S(=O)(=O)N2CCN(c3ccccc3Cl)CC2)c1)NO` [PX118811, (E)-N-Hydroxy-3-{3-[(4-(2-chlorophenyl)-1-piperazinyl)sulfonyl]phenyl}-2-propenamide], the melting point was determined as 183 °C. Also, in the data set with HDAC (HeLa cell extract), the IC50 worked out at 42 nM.

In turn, `O=C(/C=C/c1cccc(S(=O)(=O)N2CCN(c3cccc(Cl)c3)CC2)c1)NO` [PX118812, (E)-N-Hydroxy-3-{3-[(4-(3-chlorophenyl)-1-piperazinyl)sulfonyl]phenyl}-2-propenamide] had a melting point of 201 °C. In addition, the IC50 in the data set on HDAC (HeLa cell extract) came out at 26 nM.

As to `O=C(CCCCCCC(=O)N1CCN(C(=O)c2ccc3ccccc3c2)CC1)NO` [PX118830, 8-[4-(Naphthalene-2-carbonyl)-piperazin-1-yl]-8-oxo octanoic acid hydroxyamide], the melting point fell in the range of 133.5 to 134.5 °C. The IC50 in the data set with HDAC (HeLa cell extract) came to 133 nM.

For the compound `O=C(CCCCCCC(=O)N1CCN(C(=O)c2ccccc2)CC1)NO` [PX118831, 8-(4-Benzoyl-piperazin-1-yl)-8-oxo octanoic acid hydroxyamide], the melting point lay in the range of 100 to 101 °C. Besides, the IC50 in the data set on HDAC (HeLa cell extract) came to 194 nM.

For the compound `CN(C)c1ccc(C(=O)N2CCN(C(=O)CCCCCCC(=O)NO)CC2)cc1` [PX118832], the melting point fell in the range of 90 to 92 °C. Further, the IC50 with HDAC (HeLa cell extract) was found to be 212 nM.

`N#Cc1ccc(C(=O)N2CCN(C(=O)CCCCCCC(=O)NO)CC2)cc1` [PX118844, 8-[4-(4-Cyanobenzoyl)-piperazin-1-yl]-8-oxo octanoic acid hydroxyamide] displayed a melting point of 150 to 150.5 °C. Further, in the data set with HDAC (HeLa cell extract), the IC50 was found to be 286 nM.

In the case of `COc1ccc(N2CCN(C(=O)CCCCCCC(=O)NO)CC2)cc1` [PX118846, 8-[4-(4-Methoxyphenyl)-piperazin-1-yl]-8-oxo octanoic acid hydroxyamide], the melting point was in the range of 149 to 150 °C. Besides, the IC50 in the data set on HDAC (HeLa cell extract) was 3.4 nM.

In turn, `COc1cccc(N2CCN(C(=O)CCCCCCC(=O)NO)CC2)c1` [PX118847, 8-[4-(3-Methoxyphenyl)-piperazin-1-yl]-8-oxo octanoic acid hydroxyamide] displayed a melting point of 122 to 122.5 °C. In the data set on HDAC (HeLa cell extract), the IC50 came to 31 nM.

In the case of `CN(C)c1ccc(CC(=O)N2CCN(C(=O)CCCCCCC(=O)NO)CC2)cc1` [PX118848, 8-(4-{2-[4-(Dimethylamino)phenyl]acetyl}-1-piperazinyl)-N-hydroxy-8-oxooctanamide], the melting point was in the range of 77 to 79 °C. In the data set on HDAC (HeLa cell extract), the “HDAC Inhibition HeLa, % @ 100 nM” value stood at 44% @ 100 nM.

Regarding `O=C(CCCCCCC(=O)N1CCN(c2ccc([N+](=O)[O-])cc2)CC1)NO` [PX118849, N-Hydroxy-8-[4-(4-nitrophenyl)-1-piperazinyl]-8-oxooctanamide], the melting point lay within 125 to 127 °C. In the data set on HDAC (HeLa cell extract), the IC50 was found to be 26 nM.

With `O=C(CCCCCCC(=O)N1CCN(c2ncccn2)CC1)NO` [PX118850, N-Hydroxy-8-oxo-8-[4-(2-pyrimidinyl)-1-piperazinyl]octanamide], the melting point was in the range of 132 to 133.5 °C. For the same compound, in the data set on HDAC (HeLa cell extract), the IC50 is 70 nM.

Regarding `CN(C)c1ccc(CCN2CCN(S(=O)(=O)c3cccc(/C=C/C(=O)NO)c3)CC2)cc1` [PX118951, (E)-3-[3-({4-[4-(Dimethylamino)phenethyl]-1-piperazinyl}sulfonyl)phenyl]-N-hydroxy-2-propenamide], the melting point is 189 °C.

As for `O=C(/C=C/c1ccc(S(=O)(=O)N2CCN(C(c3ccc(F)cc3)c3ccc(F)cc3)CC2)cc1)NO` [PX118965, (E)-3-[4-({4-[Bis(4-fluorophenyl)methyl]-1-piperazinyl}sulfonyl)phenyl]-N-hydroxy-2-propenamide], the melting point lay in the range of 125 to 126 °C.

In turn, `O=C(CCCCCCC(=O)N1CCN(C(=O)Cc2csc3ccccc23)CC1)NO` [PX118967, 8-{4-[2-(1-Benzothiophen-3-yl)acetyl]-1-piperazinyl}-N-hydroxy-8-oxooctanamide] yielded a melting point of 140 to 141 °C.

Compound `O=C(CCCCCC(=O)N1CCN(C(=O)CCc2c[nH]c3ccccc23)CC1)NO` [PX118968, N-Hydroxy-7-{4-[3-(1H-indol-3-yl)propanoyl]-1-piperazinyl}-7-oxoheptanamide] displayed a melting point of 152.5 to 153.5 °C.

Consider `O=C(CCCCCC(=O)N1CCN(C(=O)c2c[nH]c3ccccc23)CC1)NO` [PX118969, N-Hydroxy-7-[4-(1H-indol-3-ylcarbonyl)-1-piperazinyl]-7-oxoheptanamide], for which the melting point lay in the range of 86 to 88 °C.

Compound `O=C(CCCCCC(=O)N1CCN(CCCc2c[nH]c3ccccc23)CC1)NO` [PX118970, N-Hydroxy-7-{4-[3-(1H-indol-3-yl)propyl]-1-piperazinyl}-7-oxoheptanamide] showed a melting point of 165 to 166 °C.

`O=C(/C=C/c1cccc(S(=O)(=O)N2CCN(c3ccc(Cl)c(Cl)c3)CC2)c1)NO` [PX118971, (E)-3-(3-{[4-(3,4-Dichlorophenyl)-1-piperazinyl]sulfonyl}phenyl)-N-hydroxy-2-propenamide] showed a melting point of 193 °C.

In turn, `O=C(/C=C/c1cccc(S(=O)(=O)N2CCN(c3ccc(Cl)cc3)CC2)c1)NO` [PX118972, (E)-3-(3-{[4-(4-Chlorophenyl)-1-piperazinyl]sulfonyl}phenyl)-N-hydroxy-2-propenamide] showed a melting point of 215 °C.

`O=C(CCCCCC(=O)N1CCN(Cc2c[nH]c3ccccc23)CC1)NO` [PX118978, N-Hydroxy-7-[4-(1H-indol-3-ylmethyl)-1-piperazinyl]-7-oxoheptanamide] returned a melting point of 65 to 67 °C.

Consider `O=C(CCCCCC(=O)N1CCN(c2ccc(Cl)c(Cl)c2)CC1)NO` [PX118989, 7-[4-(3,4-Dichlorophenyl)-1-piperazinyl]-N-hydroxy-7-oxoheptanamide], for which the melting point was 125 to 126 °C.

The compound `O=C(CCCCCC(=O)N1CCN(c2ccc(F)cc2)CC1)NO` [PX118990, 7-[4-(4-Fluorophenyl)-1-piperazinyl]-N-hydroxy-7-oxoheptanamide] displayed a melting point of 119 to 120 °C.

In the case of `O=C(CCCCCC(=O)N1CCN(c2ccc(Cl)cc2)CC1)NO` [PX118991, 7-[4-(4-Chlorophenyl)-1-piperazinyl]-N-hydroxy-7-oxoheptanamide], the melting point was in the range of 119 to 121 °C.

Take `Cc1ccc(N2CCN(C(=O)CCCCCC(=O)NO)CC2)cc1C` [PX118994, 7-[4-(3,4-Dimethylphenyl)-1-piperazinyl]-N-hydroxy-7-oxoheptanamide]: the melting point was 119.5 to 120.5 °C.

Consider oxamflatin [reference compound], for which the IC50 in data set [1] was 170 nM.
